Values belong to the compound of their own block, whether it stands above or below them.
Assays:
[1] = tested on: Trypanosoma brucei brucei; assay: Antitrypanosomal activity against Trypanosoma brucei brucei; format: functional, organism-based
[2] = Inhibition of Plasmodium falciparum Falcipain 2
[3] = Inhibition of Trypanosoma brucei rhodesain
[4] = Inhibition of Trypanosoma brucei recombinant rhodesain
[5] = tested on: Trypanosoma brucei brucei; assay: Antitrypanosomal activity against procyclic form of Trypanosoma brucei brucei; format: functional; settings: read-out: ED50 (the source's name)
[6] = tested on: Trypanosoma brucei brucei; assay: Antitrypanosomal activity against blood stream form of Trypanosoma brucei brucei; format: functional, organism-based; settings: read-out: ED50 (the source's name)
[7] = tested on: Trypanosoma brucei; assay: Antitrypanosomal activity against Trypanosoma brucei; format: functional, organism-based
[8] = molecular target: Trypsin (Homo sapiens, UniProt P07477+P07478+P35030); assay: Inhibition of trypsin (unknown origin); format: protein assay
[9] = Inhibition of cathepsin B (unknown origin); set-up: species or system Homo sapiens
[10] = molecular target: T1, Papain (Carica papaya, UniProt P00784); assay: Inhibition of papaya papain
T1 sequence (P00784 whole entry): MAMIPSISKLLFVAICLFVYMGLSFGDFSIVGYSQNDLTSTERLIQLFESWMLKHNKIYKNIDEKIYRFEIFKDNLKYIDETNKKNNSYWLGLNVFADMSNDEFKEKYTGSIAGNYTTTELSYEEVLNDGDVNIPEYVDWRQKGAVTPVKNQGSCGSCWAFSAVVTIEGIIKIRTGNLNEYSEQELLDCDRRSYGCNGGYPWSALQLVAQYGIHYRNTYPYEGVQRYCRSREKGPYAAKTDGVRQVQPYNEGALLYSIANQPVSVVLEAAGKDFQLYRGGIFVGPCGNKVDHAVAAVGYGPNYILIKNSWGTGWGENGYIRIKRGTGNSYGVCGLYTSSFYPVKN

[11] = molecular target: Cruzipain (Trypanosoma cruzi, UniProt P25779); assay: Inhibition of Trypanosoma cruzi cruzain
[12] = tested on: Trypanosoma brucei; assay: Inhibition of Trypanosoma brucei rhodesain assessed as second order rate constant
[13] = tested on: L6; assay: Cytotoxicity against rat L6 cells; format: cell-based
[14] = tested on: Plasmodium falciparum; assay: Antiprotozoal activity against Plasmodium falciparum; format: functional, organism-based
[15] = tested on: Trypanosoma brucei rhodesiense; assay: Antitrypanosomal activity against Trypanosoma brucei rhodesiense; format: functional, organism-based
[16] = molecular target: Rhodesain (Trypanosoma brucei rhodesiense, UniProt Q95PM0); assay: Inhibition of Trypanosoma brucei rhodesiense rhodesain
Sequence of Rhodesain (Q95PM0 whole entry): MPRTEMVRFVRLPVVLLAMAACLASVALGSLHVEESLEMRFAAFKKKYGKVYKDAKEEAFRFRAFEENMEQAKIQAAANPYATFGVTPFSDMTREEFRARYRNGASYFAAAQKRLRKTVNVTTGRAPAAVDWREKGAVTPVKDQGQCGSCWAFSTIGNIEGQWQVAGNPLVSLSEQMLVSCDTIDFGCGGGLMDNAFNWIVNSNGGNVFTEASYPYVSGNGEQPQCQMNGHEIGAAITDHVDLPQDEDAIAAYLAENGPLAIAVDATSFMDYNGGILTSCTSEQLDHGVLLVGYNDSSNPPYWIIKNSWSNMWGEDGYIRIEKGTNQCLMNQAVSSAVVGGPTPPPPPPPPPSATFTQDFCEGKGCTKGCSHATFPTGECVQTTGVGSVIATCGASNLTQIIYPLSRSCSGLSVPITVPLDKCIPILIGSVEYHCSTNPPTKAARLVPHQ

Sequence of Cruzipain (P25779 whole entry): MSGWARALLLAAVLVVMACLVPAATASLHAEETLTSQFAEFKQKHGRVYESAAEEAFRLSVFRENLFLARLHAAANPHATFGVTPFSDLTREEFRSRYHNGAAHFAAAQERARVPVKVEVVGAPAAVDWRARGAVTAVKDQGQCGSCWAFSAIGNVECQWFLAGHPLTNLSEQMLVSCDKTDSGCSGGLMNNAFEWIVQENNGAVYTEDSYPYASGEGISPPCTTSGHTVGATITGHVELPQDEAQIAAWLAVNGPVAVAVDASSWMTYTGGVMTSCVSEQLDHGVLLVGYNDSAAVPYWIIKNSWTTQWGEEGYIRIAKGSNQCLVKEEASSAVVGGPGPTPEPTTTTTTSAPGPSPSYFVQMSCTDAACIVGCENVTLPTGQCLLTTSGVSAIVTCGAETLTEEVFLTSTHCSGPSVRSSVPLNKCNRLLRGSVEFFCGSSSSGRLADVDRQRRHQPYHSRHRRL

Compound: CCCCCN(C#N)N(C)C(=O)[C@@H](NC(=O)c1ccc2c(c1)OCCO2)C(C)C
IC50 [4]: 54.6 nM

Compound: CC(C)C[C@H](NC(=O)c1ccc2c(c1)OCCO2)C(=O)N(C)N(C)C#N
IC50 [4]: 0.06 nM

Compound: CCCCCN(C#N)N(C)C(=O)[C@H](Cc1ccccc1)NC(=O)c1ccc2c(c1)OCCO2
IC50 [4]: 1.34 nM

Compound: CS(=O)(=O)c1sc(C(=O)NC(=S)Nc2ccc(OC(F)(F)F)cc2)c2ccccc12
IC50 [3]: 4.2 µM
IC50 [8]: > 50 µM
IC50 [9]: 11 µM
IC50 [10]: > 50 µM
IC50 [11]: 6.9 µM

Compound: O=C(N[C@@H](Cc1ccccc1)C(=O)N[C@H](/C=C/S(=O)(=O)Oc1ccccc1)CCc1ccccc1)OCc1ccccc1
K [12]: 3.48 ×10⁸ /M/min

Compound: CN(C(=O)[C@H](Cc1ccccc1)NC(=O)c1ccc2c(c1)OCCO2)N(C#N)CCCc1ccccc1
IC50 [4]: 0.24 nM

Compound: CC(C)C[C@H](NC(=O)c1ccc2c(c1)OCCO2)C(=O)N(C)N(C#N)CCc1ccccc1
IC50 [4]: 0.71 nM

Compound: O=C1C(=O)N(S(=O)(=O)c2ccccc2)c2ccccc21
IC50 [3]: 15 µM

Compound: CN(C#N)N(C)C(=O)[C@H](Cc1ccccc1)NC(=O)OCc1ccccc1
IC50 [4]: 0.4 nM

Compound: O=C(Nc1ccc(Cl)cc1)Nc1csc(-c2ccc(C(F)(F)F)cc2)n1
IC50 [3]: 2 µM
IC50 [8]: > 50 µM
IC50 [9]: 10.8 µM
IC50 [10]: > 50 µM
IC50 [11]: 1.2 µM

Compound: CCN(c1nc(C#N)nc(N2CCOCC2)n1)C1CCCCC1
IC50 [13]: 45.5 µM
IC50 [14]: > 5 µM
Ki [2]: 0.08 µM
IC50 [15]: 44.1 µM
Ki [16]: 0.1 µM

Compound: N#Cc1nc(N2CCOCC2)nc(N(Cc2ccc3c(c2)OCO3)C2CCCCC2)n1
IC50 [13]: 11.1 µM
IC50 [14]: 2.9 µM
Ki [2]: 0.02 µM
IC50 [15]: 30.1 µM
Ki [16]: 0.008 µM

Compound: N#Cc1nc(N2CCOCC2)nc(N(Cc2cccc(C(F)(F)F)c2)C2C3CC4CC(C3)CC2C4)n1 (stereo not given)
IC50 [13]: 23.2 µM
IC50 [14]: 1.1 µM
Ki [2]: 12.9 µM
IC50 [15]: 27.5 µM

Compound: NC(=S)/N=N/c1c(O)[nH]c2ccc(I)cc12
IC50 [3]: 1 µM

Compound: CC(C)[C@H](NC(=O)c1ccc2c(c1)OCCO2)C(=O)N(C)N(C#N)CCc1ccccc1
IC50 [4]: 35.1 nM

Compound: CN(C(=O)[C@H](Cc1ccccc1)NC(=O)c1ccc2c(c1)OCCO2)N(C#N)CCc1ccccc1
IC50 [4]: 1.86 nM

Compound: O=C(N[C@@H](Cc1ccccc1)C(=O)N[C@H](/C=C/S(=O)(=O)CCc1ccccc1)CCc1ccccc1)OCc1ccccc1
K [12]: 1.09 ×10⁷ /M/min

Compound: COCCNc1nc(C#N)nc(N(Cc2cccc(C(F)(F)F)c2)C2C3CC4CC(C3)CC2C4)n1 (stereo not given)
IC50 [13]: 8.1 µM
IC50 [14]: 1.8 µM
Ki [2]: 9.8 µM
IC50 [15]: 19.6 µM

Compound: CC(C)[C@H](NC(=O)c1ccc2c(c1)OCCO2)C(=O)N(C)N(C#N)Cc1ccccc1
IC50 [4]: 15.8 nM

Compound: CCCc1c(NC(=O)Nc2ccc(OC(F)(F)F)cc2)cnn1-c1ccc(Cl)cc1
IC50 [3]: < 10 µM
IC50 [11]: < 10 µM

Compound: O=C(NC(=S)Nc1ncccc1OCc1ccccc1)c1cccn1S(=O)(=O)c1ccccc1
IC50 [3]: 3.5 µM
IC50 [11]: 3 µM

Compound: N#Cc1nc(N2CCOCC2)nc(N(c2ccccc2F)C2CCCCC2)n1
IC50 [13]: 11.4 µM
IC50 [14]: > 5 µM
Ki [2]: 0.025 µM
IC50 [15]: 15 µM
Ki [16]: 0.011 µM

More lines, main results first:

IC50 [1]: 9.17 µM
Ki [3]: 0.05 µM
Compound: N=C(NC(=O)OCc1ccccc1)NC(=O)c1ccc(C(=O)NCc2ccccc2)[nH]1
Ki [2]: 7.81 µM

EC50 [5]: 0.7 µM
EC50 [6]: 1.2 µM
Compound: CN(C(=O)[C@H](Cc1ccccc1)NC(=O)OCc1ccccc1)N(C#N)CCCc1ccccc1
IC50 [4]: 2 nM

IC50 [7]: 4.5 µM
Compound: C/C(=N\N=C(\N)S)c1ccc(Nc2ccccc2)cc1
IC50 [3]: 18 µM

IC50 [7]: > 20 µM
Compound: C/C(=N\NC(N)=S)c1cccc(/C(C)=N/NC(N)=S)c1
IC50 [3]: 0.33 µM

EC50 [5]: 0.4 µM
EC50 [6]: 1.1 µM
Compound: CN(C(=O)[C@H](Cc1ccccc1)NC(=O)OCc1ccccc1)N(C#N)Cc1ccccc1
IC50 [4]: 0.19 nM

IC50 [7]: 10 µM
Compound: C/C(=N\N=C(\N)S)c1ccc(-c2ccccc2)cc1
IC50 [3]: 0.09 µM

IC50 [7]: 12 µM
Compound: C/C(=N\N=C(\N)S)c1cccc(-c2ccccc2)c1
IC50 [3]: 1.1 µM

IC50 [1]: 3.21 µM
Ki [3]: 5.29 µM
Compound: CC(C)(C)OC(=O)Nc1cccc(CNC(=O)c2ccc(C(=O)NC(=N)NC(=O)OCc3ccccc3)o2)c1
Ki [2]: 3.93 µM

IC50 [1]: 0.22 µM
Ki [3]: 0.11 µM
Compound: CC(C)(C)OC(=O)NCc1cccc(NC(=O)c2ccc(C(=O)NC(=N)NC(=O)OCc3ccccc3)[nH]2)c1
Ki [2]: 0.62 µM

IC50 [7]: > 20 µM
Compound: C/C(=N\N=C(\N)S)c1cccc(Br)c1
IC50 [3]: 0.05 µM

IC50 [7]: 2 µM
Compound: C/C(=N\N=C(/S)N1CCN(C)CC1)c1cccc(Br)c1
IC50 [3]: 4 µM

IC50 [7]: 6 µM
Compound: C/C(=N\N=C(\N)S)c1cccc(Oc2ccccc2)c1
IC50 [3]: 0.55 µM

IC50 [15]: 0.072 µM
Compound: N/C(S)=N/N=C(\C=C\c1ccccc1)c1ccc(Cl)c(Cl)c1

— ChEMBL document CHEMBL2401704, “Inhibition of rhodesain as a novel therapeutic modality for human African trypanosomiasis” (J Med Chem, 2013)
